Reference: patent US7101896B2, “Pharmaceutical compositions and methods for use” (Targacept, Inc., priority 1999, dated 2006)

These molecules were tested against CNS nicotinic receptors (Rattus norvegicus, UniProt P09483+P12390) (assay: Determination of binding to relevant receptor sites). Conditions: calculated from the IC50 values using the method of Cheng et al.; techniques of U.S. Pat. No. 5,597,919; read-out: Ki (inhibition constant, receptor binding).
Sequence of CNS nicotinic receptors (P09483 31-630): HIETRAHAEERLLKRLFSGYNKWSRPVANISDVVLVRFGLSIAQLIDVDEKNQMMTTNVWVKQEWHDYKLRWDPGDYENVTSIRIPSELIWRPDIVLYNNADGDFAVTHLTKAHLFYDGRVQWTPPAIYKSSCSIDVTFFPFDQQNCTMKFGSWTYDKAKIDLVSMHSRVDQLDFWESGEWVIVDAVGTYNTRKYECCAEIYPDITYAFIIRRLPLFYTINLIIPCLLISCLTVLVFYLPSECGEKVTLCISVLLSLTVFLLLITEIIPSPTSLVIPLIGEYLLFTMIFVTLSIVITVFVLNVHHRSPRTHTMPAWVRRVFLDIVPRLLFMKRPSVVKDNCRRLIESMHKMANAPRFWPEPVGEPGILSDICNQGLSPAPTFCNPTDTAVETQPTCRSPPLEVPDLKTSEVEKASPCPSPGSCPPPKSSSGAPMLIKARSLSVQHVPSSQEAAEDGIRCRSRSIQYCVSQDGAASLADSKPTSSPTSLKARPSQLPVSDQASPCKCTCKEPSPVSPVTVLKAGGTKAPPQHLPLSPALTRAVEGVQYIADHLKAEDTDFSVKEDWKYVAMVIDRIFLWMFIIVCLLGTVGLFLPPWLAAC
Sequence of CNS nicotinic receptors (P12390 25-500): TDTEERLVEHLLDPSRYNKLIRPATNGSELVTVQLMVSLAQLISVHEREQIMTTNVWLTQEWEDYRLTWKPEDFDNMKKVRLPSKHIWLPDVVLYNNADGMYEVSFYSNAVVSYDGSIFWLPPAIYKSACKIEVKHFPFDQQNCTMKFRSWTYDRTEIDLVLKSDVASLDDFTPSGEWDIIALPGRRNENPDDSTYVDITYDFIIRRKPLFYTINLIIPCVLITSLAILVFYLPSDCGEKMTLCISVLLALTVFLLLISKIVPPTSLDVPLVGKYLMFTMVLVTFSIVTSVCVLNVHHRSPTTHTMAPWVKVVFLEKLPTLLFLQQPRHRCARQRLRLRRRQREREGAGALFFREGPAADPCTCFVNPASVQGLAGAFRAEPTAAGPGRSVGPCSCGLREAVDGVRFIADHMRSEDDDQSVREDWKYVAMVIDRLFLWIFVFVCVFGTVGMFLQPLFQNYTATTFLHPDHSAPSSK

Row | Molecule | Ki [nM]
1 | (E,S)-3-cyclopentyloxy-5-(pyrrolidin-2-ylvinyl)pyridine hemigalactarate [Sample No. 19] | 51
2 | (S)-3-(3-pyridyloxy)-5-(pyrrolidin-2-ylethynyl)pyridine hemigalactarate [Sample No. 15] | 13
3 | (S)-3-(4-methoxyphenoxy)-5-(pyrrolidin-2-ylethynyl)pyridine hemigalactarate [Sample No. 10] | 33
4 | (S)-3-(phenoxyphenyl)-5-(pyrrolidin-2-ylethynyl)pyridine hemigalactarate [Sample No. 9] | 530
5 | (S)-3-(pyrrolidin-2-ylethynyl)-5-(tetrahydropyran-4-yloxy)pyridine hemigalactarate [Sample No. 16] | 7
6 | (S)-3-isopropoxy-5-(pyrrolidin-2-ylethynyl)pyridine hemigalactarate [Sample No. 7] | 2
7 | (S)-(E)-3(2-pyrrolidin-2-ylvinyl)pyridine hemigalactarate [Sample No. 2] | 306

Same assay, conditions: read-out: Ki (inhibition constant, receptor binding)

Row | Molecule | Ki [nM]
8 | Oc1ccc(Oc2cncc(C#C[C@@H]3CCCN3)c2)cc1 [Sample No. 11, (S)-3-(4-hydroxyphenoxy)-5-(pyrrolidin-2-ylethynyl)pyridine] | 2
